Experimental data taken from patent publication US9828381B2, “Substituted pyrazolopyrimidines and method of use” (AbbVie Deutschland GmbH & Co. KG, priority 2015, dated 2017).

Biological target: GABA-B receptor (Rattus norvegicus (Rat), UniProt O88871+Q9Z0U4)
Test: [35S]GTPgS binding assay, rat cortical membranes, in presence of EC25 GABA
Assay type: biochemical
Conditions: rat brain cortex membranes; in presence of 1 μM GABA (EC25); positive allosteric modulation
Protocol: Preparation of Rat Brain Membranes for Native Receptor Assays
Membranes from rat brain cortex were prepared as described in detail by Olpe et al. and stored at concentrations of 1.66 mg/mL protein at −80° C. until required. (Olpe, H.-R, et al. Eur J Pharmacol 1990; 187: 27-38).
[^35S] GTPgS Binding Assay
The composition of the assay mixtures [in a final volume of 200 μL in 96-well U-bottom plates (Greiner) was as follows: 50 mM Tris-HCl buffer, pH 7.7, 10 mM MgCl2, 0.2 mM EGTA, 2 mM CaCl2, 100 mM NaCl, 20 µM guanosine 5′-diphosphate (Sigma), 0.3 nM [^35S]GTPgS (1250 Ci/mmol (PerkinElmer)), and the test compounds at increasing concentrations (from 10 nM up to […]), […] of rat cortical membranes, and a concentration of […], that has been observed in previous experiments to correspond to the EC25, a concentration that gives 25% of the maximal response of GABA. The samples were incubated at room temperature for 60 minutes on a shaker. The incubation was stopped by rapid vacuum filtration over glass-fiber filter plates (UniFilter-96 well, GF/B membrane plates, PerkinElmer) using a 96-well plate harvester (TOMTEK© Harvester). The UniFilter plate was washed five times with ice-cold wash buffer (50 mM Tris-HCl buffer, pH 7.7, 10 mM MgCl2, and 100 mM NaCl. After filtration the plate was dried for 90 minutes at 55° C. The plates were closed on the bottom with black sealing membranes, and liquid scintillation cocktail (35 μL, Betaplate Scint, PerkinElmer) was added to each well. After sealing the top of the plate, an additional incubation step of 90 minutes at room temperature followed before measuring the plate. The amount of membrane-bound [^35S]GTPgS was measured using a 96-well plate reader (Microbeta®, PerkinElmer). Nonspecific binding was measured in the presence of unlabeled 10 μM of GTPgS (Millipore) and without GABA. Basal binding was measured in the absence of 1 μM GABA, and maximal binding was measured in the presence of GABA using 1 mM GABA concentrations.
Data analysis. The concentration-response curves of compounds of the present disclosure in the presence of EC25 of GABA-B receptor agonist were generated using the GraphPad Prism® program (GraphPad Software, San Diego, Calif.). Data was normalized using basal binding as 0% and maximal binding as 100%. The curves were fitted by nonlinear regression allowing determination of EC50 values from sigmoidal dose-response curves. Each curve was performed using triplicate sample per date point and 10 concentrations.

GABA-B receptor, sequence (Q9Z0U4 17-960): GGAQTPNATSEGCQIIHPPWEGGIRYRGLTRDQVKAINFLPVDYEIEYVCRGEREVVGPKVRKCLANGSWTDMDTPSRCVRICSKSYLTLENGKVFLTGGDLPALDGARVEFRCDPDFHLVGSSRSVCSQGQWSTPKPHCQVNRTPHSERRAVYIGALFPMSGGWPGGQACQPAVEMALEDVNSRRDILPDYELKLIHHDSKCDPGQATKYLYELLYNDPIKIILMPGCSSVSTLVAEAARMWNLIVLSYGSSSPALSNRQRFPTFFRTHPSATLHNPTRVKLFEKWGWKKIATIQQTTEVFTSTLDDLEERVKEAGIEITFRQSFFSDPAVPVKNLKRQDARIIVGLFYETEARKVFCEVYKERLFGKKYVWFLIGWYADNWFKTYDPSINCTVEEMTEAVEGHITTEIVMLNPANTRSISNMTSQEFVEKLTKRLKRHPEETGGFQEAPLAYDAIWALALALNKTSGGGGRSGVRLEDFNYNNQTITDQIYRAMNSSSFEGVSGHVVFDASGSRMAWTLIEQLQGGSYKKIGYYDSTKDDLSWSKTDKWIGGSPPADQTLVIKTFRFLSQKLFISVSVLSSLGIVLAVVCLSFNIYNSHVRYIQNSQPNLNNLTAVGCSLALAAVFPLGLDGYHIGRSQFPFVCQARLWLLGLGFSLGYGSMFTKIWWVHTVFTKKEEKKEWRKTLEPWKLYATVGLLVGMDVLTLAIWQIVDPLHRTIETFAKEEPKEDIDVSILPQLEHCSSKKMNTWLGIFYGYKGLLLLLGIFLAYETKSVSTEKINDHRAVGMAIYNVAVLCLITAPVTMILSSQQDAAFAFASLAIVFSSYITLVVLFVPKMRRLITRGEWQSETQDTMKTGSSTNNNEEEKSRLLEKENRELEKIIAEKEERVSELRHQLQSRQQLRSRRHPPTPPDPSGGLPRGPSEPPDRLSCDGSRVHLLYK
GABA-B receptor, sequence (O88871 41-940): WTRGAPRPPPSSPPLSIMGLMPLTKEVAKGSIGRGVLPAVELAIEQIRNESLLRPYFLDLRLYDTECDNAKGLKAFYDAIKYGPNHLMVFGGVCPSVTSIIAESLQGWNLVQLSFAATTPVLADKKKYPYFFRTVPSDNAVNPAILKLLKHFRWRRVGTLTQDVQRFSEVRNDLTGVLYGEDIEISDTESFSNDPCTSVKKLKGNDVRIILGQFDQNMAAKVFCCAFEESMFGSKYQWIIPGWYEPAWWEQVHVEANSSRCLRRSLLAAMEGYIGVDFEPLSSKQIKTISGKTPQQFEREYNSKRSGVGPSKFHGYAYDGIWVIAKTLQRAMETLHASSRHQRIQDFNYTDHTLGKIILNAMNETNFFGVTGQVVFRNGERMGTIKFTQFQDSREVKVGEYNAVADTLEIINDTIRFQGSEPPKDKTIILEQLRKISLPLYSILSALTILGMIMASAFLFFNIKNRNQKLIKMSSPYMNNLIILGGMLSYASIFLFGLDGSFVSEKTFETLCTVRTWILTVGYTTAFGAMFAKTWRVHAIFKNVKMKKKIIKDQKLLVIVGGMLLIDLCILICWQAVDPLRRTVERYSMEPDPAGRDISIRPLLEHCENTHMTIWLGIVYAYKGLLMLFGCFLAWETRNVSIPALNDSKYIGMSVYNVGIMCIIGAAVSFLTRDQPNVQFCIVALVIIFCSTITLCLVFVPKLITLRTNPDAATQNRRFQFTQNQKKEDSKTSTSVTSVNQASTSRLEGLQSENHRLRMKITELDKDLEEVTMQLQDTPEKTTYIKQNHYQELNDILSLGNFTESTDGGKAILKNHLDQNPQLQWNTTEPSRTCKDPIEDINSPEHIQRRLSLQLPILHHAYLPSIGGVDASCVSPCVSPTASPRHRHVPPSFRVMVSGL

Compound: Cc1cc(N2CCC(F)CC2)n2nc(C(C)c3ccc(Cl)cc3)cc2n1 (centres unmarked) [Example 2-4, 2-[1-(4-chlorophenyl)ethyl]-7-(4-fluoropiperidin-1-yl)-5-methylpyrazolo[1,5-a]pyrimidine]
- EC50: 0.128 µM

Compound: Cc1cc(N2CCCCC2=O)n2nc(Cc3ccc(Cl)cc3)cc2n1 [Example 1-10, 1-[2-(4-chlorobenzyl)-5-methylpyrazolo[1,5-a]pyrimidin-7-yl]piperidin-2-one]
- EC50: > 10 µM

Compound: Cc1cc(N2CCCCC2=O)n2nc(C(C)c3ccc(C(F)(F)F)cc3)cc2n1 (centres unmarked) [Example 8-18, 1-(5-methyl-2-{1-[4-(trifluoromethyl)phenyl]ethyl}pyrazolo[1,5-a]pyrimidin-7-yl)piperidin-2-one]
- EC50: 0.746 µM

Compound: CCC(c1ccc(Cl)cc1)c1cc2nc(C)cc(N3CCCC(F)(F)C3)n2n1 (centres unmarked) [Example 3-2, 2-[1-(4-chlorophenyl)propyl]-7-(3,3-difluoropiperidin-1-yl)-5-methylpyrazolo[1,5-a]pyrimidine]
- EC50: 0.014 µM

Compound: Cc1cc(N2CCC2)n2nc(C(C)c3ccc(Cl)cc3)cc2n1 (centres unmarked) [Example 2-12, 7-(azetidin-1-yl)-2-[1-(4-chlorophenyl)ethyl]-5-methylpyrazolo[1,5-a]pyrimidine]
- EC50: 2.82 µM

Compound: Cc1cc(N2CCCC(F)(F)C2)n2nc(C(c3ccc(Cl)cc3)C(C)C)cc2n1 (centres unmarked) [Example 4-2, 2-[1-(4-chlorophenyl)-2-methylpropyl]-7-(3,3-difluoropiperidin-1-yl)-5-methylpyrazolo[1,5-a]pyrimidine]
- EC50: 0.009 µM

Compound: CC(=O)N[C@@H]1CCN(c2cc(C)nc3cc(C(C)c4ccc(Cl)cc4)nn23)C1 (stereo partly drawn) [Example 2-23, N-[(3R)-1-{2-[1-(4-chlorophenyl)ethyl]-5-methylpyrazolo[1,5-a]pyrimidin-7-yl}pyrrolidin-3-yl]acetamide]
- EC50: 2.73 µM

Compound: Cc1cc(N2CCC(C(N)=O)C2)n2nc(C(C)c3ccc(C(F)(F)F)cc3)cc2n1 (centres unmarked) [Example 8-22, 1-(5-methyl-2-{1-[4-(trifluoromethyl)phenyl]ethyl}pyrazolo[1,5-a]pyrimidin-7-yl)pyrrolidine-3-carboxamide]
- EC50: 0.771 µM

Compound: CCC(c1ccc(Cl)cc1)c1cc2nc(C)cc(N3CCCCC3CCO)n2n1 (centres unmarked) [Example 3-1, 2-(1-{2-[1-(4-chlorophenyl)propyl]-5-methylpyrazolo[1,5-a]pyrimidin-7-yl}piperidin-2-yl)ethanol]
- EC50: 0.008 µM

Compound: Cc1cc(NC(C)(C)C)n2nc(C(C)c3ccc(Cl)cc3)cc2n1 (centres unmarked) [Example 2-8, N-tert-butyl-2-[1-(4-chlorophenyl)ethyl]-5-methylpyrazolo[1,5-a]pyrimidin-7-amine]
- EC50: 0.071 µM

Compound: CC[C@@H]1CCCCN1c1cc(C)nc2cc(C(C)c3ccc(Cl)cc3)nn12 (stereo partly drawn) [Example 2-22, 2-[1-(4-chlorophenyl)ethyl]-7-[(2R)-2-ethylpiperidin-1-yl]-5-methylpyrazolo[1,5-a]pyrimidine]
- EC50: 0.07 µM

Compound: Cc1cc(N2CCCCC2CCO)n2nc(CC34CC5CC(CC(C5)C3)C4)cc2n1 (centres unmarked) [Example 7-1, 2-{1-[5-methyl-2-(tricyclo[3.3.1.1^3′]dec-1-ylmethyl)pyrazolo[1,5-a]pyrimidin-7-yl]piperidin-2-yl}ethanol]
- EC50: 1.08 µM

Compound: Cc1cc(N2CCCCC2CCO)n2nc(C(C)c3ccc(C(F)(F)F)cc3)cc2n1 (centres unmarked) [Example 8-2, 2-[1-(5-methyl-2-{1-[4-(trifluoromethyl)phenyl]ethyl}pyrazolo[1,5-a]pyrimidin-7-yl)piperidin-2-yl]ethanol]
- EC50: 0.087 µM

Compound: Cc1cc(N2CC3(CCOCC3)C2)n2nc(C(C)c3ccc(Cl)cn3)cc2n1 (centres unmarked) [Example 9-9, 2-[1-(5-chloropyridin-2-yl)ethyl]-5-methyl-7-(7-oxa-2-azaspiro[3.5]non-2-yl)pyrazolo[1,5-a]pyrimidine]
- EC50: > 10 µM

Compound: Cc1cc(N2CCC[C@H](O)C2)n2nc(C(C)c3ccc(Cl)cc3)cc2n1 (stereo partly drawn) [Example 2-10, (3S)-1-{2-[1-(4-chlorophenyl)ethyl]-5-methylpyrazolo[1,5-a]pyrimidin-7-yl}piperidin-3-ol]
- EC50: 0.152 µM

Compound: Cc1cc(N2CCCCC2CCO)n2nc(Cc3cccc(Cl)c3)cc2n1 (centres unmarked) [Example 12-1, 2-{1-[2-(3-chlorobenzyl)-5-methylpyrazolo[1,5-a]pyrimidin-7-yl]piperidin-2-yl}ethanol]
- EC50: 5.67 µM

Compound: Cc1cc(N2CCCC(F)(F)C2)n2nc(Cc3ccc(Cl)cc3)cc2n1 [Example 1-4, 2-(4-chlorobenzyl)-7-(3,3-difluoropiperidin-1-yl)-5-methylpyrazolo[1,5-a]pyrimidine]
- EC50: 2.89 µM

Compound: Cc1cc(NC(C)(C)C)n2nc(Cc3ccc(Cl)cc3)cc2n1 [Example 1-14, N-tert-butyl-2-(4-chlorobenzyl)-5-methylpyrazolo[1,5-a]pyrimidin-7-amine]
- EC50: 1.03 µM

Compound: Cc1cc(N2CCC[C@H](NS(C)(=O)=O)C2)n2nc(Cc3ccc(Cl)cc3)cc2n1 [Example 11-1]
- EC50: 3.51 µM

Compound: Cc1cc(NC2(C)CC2)n2nc(Cc3ccc(Cl)cc3)cc2n1 [Example 1-3, 2-(4-chlorobenzyl)-5-methyl-N-(1-methylcyclopropyl)pyrazolo[1,5-a]pyrimidin-7-amine]
- EC50: 2.55 µM

Compound: Cc1cc(NC2CC(F)(F)C2)n2nc(C(C)c3ccc(Cl)cn3)cc2n1 (centres unmarked) [Example 9-2, 2-[1-(5-chloropyridin-2-yl)ethyl]-N-(3,3-difluorocyclobutyl)-5-methylpyrazolo[1,5-a]pyrimidin-7-amine]
- EC50: 1.6 µM

Compound: CCCC(c1ccc(Cl)cc1)c1cc2nc(C)cc(N3CCCCC3CCO)n2n1 (centres unmarked) [Example 5-1, 2-(1-{2-[1-(4-chlorophenyl)butyl]-5-methylpyrazolo[1,5-a]pyrimidin-7-yl}piperidin-2-yl)ethanol]
- EC50: 0.003 µM

Compound: Cc1cc(N2CCCC(F)(F)C2)n2nc(C(C)c3ccc(C(F)(F)F)cc3)cc2n1 (centres unmarked) [Example 8-17, 7-(3,3-difluoropiperidin-1-yl)-5-methyl-2-{1-[4-(trifluoromethyl)phenyl]ethyl}pyrazolo[1,5-a]pyrimidine]
- EC50: 0.76 µM

Compound: Cc1cc(N2CCCCC2CO)n2nc(Cc3ccc(Cl)cc3)cc2n1 (centres unmarked) [Example 1-2, {1-[2-(4-chlorobenzyl)-5-methylpyrazolo[1,5-a]pyrimidin-7-yl]piperidin-2-yl}methanol]
- EC50: 1.66 µM

Compound: Cc1cc(N2CCC[C@@H](CO)C2)n2nc(Cc3ccc(Cl)cc3)cc2n1 [Example 1-21, {(3R)-1-[2-(4-chlorobenzyl)-5-methylpyrazolo[1,5-a]pyrimidin-7-yl]piperidin-3-yl}methanol]
- EC50: 1.38 µM

Compound: Cc1cc(N2CCCC(F)C2)n2nc(C(C)c3ccc(C(F)(F)F)cc3)cc2n1 (centres unmarked) [Example 8-12, 7-(3-fluoropiperidin-1-yl)-5-methyl-2-{1-[4-(trifluoromethyl)phenyl]ethyl}pyrazolo[1,5-a]pyrimidine]
- EC50: 0.37 µM

Compound: Cc1cc(N2CC[C@H]2C(N)=O)n2nc(C(C)c3ccc(C(F)(F)F)cc3)cc2n1 (stereo partly drawn) [Example 8-1, (2S)-1-(5-methyl-2-{1-[4-(trifluoromethyl)phenyl]ethyl}pyrazolo[1,5-a]pyrimidin-7-yl)azetidine-2-carboxamide]
- EC50: > 10 µM

Compound: Cc1cc(N2CCC(F)(F)C2)n2nc(C(C)c3ccc(Cl)cn3)cc2n1 (centres unmarked) [Example 9-5, 2-[1-(5-chloropyridin-2-yl)ethyl]-7-(3,3-difluoropyrrolidin-1-yl)-5-methylpyrazolo[1,5-a]pyrimidine]
- EC50: 1.66 µM

Compound: Cc1cc(NC2CC(F)C2)n2nc(C(C)c3ccc(Cl)cn3)cc2n1 (centres unmarked) [Example 9-8, 2-[1-(5-chloropyridin-2-yl)ethyl]-N-(3-fluorocyclobutyl)-5-methylpyrazolo[1,5-a]pyrimidin-7-amine]
- EC50: 9.3 µM
